The target of experiment [1] is MAP4K4 (HGK) (Homo sapiens, UniProt O95819). The experiment is described as follows: HGK biochemical assay (AlphaScreen). Conditions: 10 μM ATP. The protocol:
Substrate was 10 nM biotin-ERM (T567/T564/T558, Cell Signaling, Inc., cat#1344). MAP4K4 kinase was at 0.5 ng per sample.
A general note: Bead proximity is the source of the signal in Alpha formats.

Experiment [2] concerns the target c-kit (Homo sapiens, UniProt P10721). The experiment is described as follows: c-kit assays of Examples 40 and 41 (AlphaScreen kinase assays at 10 and 100 μM ATP, 33P-ATP filter assay, M-07e SCF-stimulated proliferation and phosphorylation).

Sequence of c-kit (P10721 with tags, fused parts or gaps): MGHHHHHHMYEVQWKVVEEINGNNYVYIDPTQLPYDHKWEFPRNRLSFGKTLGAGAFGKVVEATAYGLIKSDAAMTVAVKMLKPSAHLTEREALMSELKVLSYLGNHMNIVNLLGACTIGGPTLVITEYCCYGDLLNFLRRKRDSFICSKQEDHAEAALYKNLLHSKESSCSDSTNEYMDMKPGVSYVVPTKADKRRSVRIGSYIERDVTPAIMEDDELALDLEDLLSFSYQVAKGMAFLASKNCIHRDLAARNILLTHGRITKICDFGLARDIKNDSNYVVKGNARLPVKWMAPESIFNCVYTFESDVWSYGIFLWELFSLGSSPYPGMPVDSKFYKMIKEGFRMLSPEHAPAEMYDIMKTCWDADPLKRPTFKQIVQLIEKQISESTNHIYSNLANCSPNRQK
Sequence of MAP4K4 (HGK) (O95819 whole entry): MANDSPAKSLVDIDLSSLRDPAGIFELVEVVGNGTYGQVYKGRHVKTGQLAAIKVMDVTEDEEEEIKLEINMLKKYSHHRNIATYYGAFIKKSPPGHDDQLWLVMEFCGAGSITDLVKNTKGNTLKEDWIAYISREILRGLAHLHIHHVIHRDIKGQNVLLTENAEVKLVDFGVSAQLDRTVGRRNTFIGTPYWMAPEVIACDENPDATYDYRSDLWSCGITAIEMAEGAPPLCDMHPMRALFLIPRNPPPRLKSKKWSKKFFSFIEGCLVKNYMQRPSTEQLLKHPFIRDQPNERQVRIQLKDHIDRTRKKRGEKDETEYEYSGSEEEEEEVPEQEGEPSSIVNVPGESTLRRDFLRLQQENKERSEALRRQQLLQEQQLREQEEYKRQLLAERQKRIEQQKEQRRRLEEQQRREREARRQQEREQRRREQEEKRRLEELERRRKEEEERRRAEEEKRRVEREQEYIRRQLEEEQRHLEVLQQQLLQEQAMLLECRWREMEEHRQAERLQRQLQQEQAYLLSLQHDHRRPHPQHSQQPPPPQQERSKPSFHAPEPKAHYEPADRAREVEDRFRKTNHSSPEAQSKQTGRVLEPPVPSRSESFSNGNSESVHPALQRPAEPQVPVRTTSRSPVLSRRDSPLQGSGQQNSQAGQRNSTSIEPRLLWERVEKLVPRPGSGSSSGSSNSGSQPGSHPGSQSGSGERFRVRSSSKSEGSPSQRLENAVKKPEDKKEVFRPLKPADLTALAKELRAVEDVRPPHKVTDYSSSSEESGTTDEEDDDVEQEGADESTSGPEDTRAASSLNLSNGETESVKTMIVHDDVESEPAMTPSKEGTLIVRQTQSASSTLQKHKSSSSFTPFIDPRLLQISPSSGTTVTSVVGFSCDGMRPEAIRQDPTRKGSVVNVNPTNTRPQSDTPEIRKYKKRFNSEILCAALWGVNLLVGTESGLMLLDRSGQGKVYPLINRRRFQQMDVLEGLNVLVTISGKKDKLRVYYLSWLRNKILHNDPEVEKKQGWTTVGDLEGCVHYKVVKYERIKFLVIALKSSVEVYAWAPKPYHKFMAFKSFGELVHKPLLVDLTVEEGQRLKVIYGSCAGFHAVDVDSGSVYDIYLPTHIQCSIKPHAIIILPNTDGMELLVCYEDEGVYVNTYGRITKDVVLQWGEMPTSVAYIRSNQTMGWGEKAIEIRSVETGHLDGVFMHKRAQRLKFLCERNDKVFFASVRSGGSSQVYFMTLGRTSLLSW

Usually IC50 stands for the concentration at which inhibition is half-maximal. A low value points to greater potency. As for `Fc1ccc(CNc2nc(Cl)c(Cc3c[nH]c4ncccc34)s2)cc1` [P-0156, [4-Chloro-5-(1H-pyrrolo[2,3-b]pyridin-3-ylmethyl)-thiazol-2-yl]-(4-fluoro-benzyl)-amine], the IC50 in experiment [1] and in experiment [2] was below 1 µM in each case.

Take `O=C(c1cnc(NCc2ccc(F)cc2)s1)c1c[nH]c2ncccc12` [P-0177, [2-(4-fluoro-benzylamino)-thiazol-5-yl]-(1H-pyrrolo[2,3-b]pyridin-3-yl)-methanone]: the IC50 in experiment [1] and in experiment [2] was below 1 µM throughout.

Consider `Fc1ccc(CNc2nc(Cl)c(Cc3c[nH]c4ncc(Cl)cc34)s2)cc1` [P-0195, [4-Chloro-5-(5-chloro-1H-pyrrolo[2,3-b]pyridin-3-ylmethyl)-thiazol-2-yl]-(4-fluoro-benzyl)-amine], for which the IC50 in experiment [1] and in experiment [2] was below 1 µM in each case.

Take `Cc1nc(CNc2nc(Cl)c(Cc3c[nH]c4ncc(Cl)cc34)s2)cs1` [P-0201, [4-Chloro-5-(5-chloro-1H-pyrrolo[2,3-b]pyridin-3-ylmethyl)-thiazol-2-yl]-(2-methyl-thiazol-4-ylmethyl)-amine]: the IC50 in experiment [1] and in experiment [2] was below 1 µM throughout.

With `Clc1ccc(CNc2nc(Cl)c(Cc3c[nH]c4ncc(Cl)cc34)s2)nc1` [P-0203, [4-Chloro-5-(5-chloro-1H-pyrrolo[2,3-b]pyridin-3-ylmethyl)-thiazol-2-yl]-(5-chloro-pyridin-2-ylmethyl)-amine], the IC50 in experiment [1] and in experiment [2] was below 1 µM in each case.

Regarding `Fc1ccc(CNc2nc(Cl)c(Cc3c[nH]c4ncccc34)s2)nc1` [P-0206, [4-Chloro-5-(1H-pyrrolo[2,3-b]pyridin-3-ylmethyl)-thiazol-2-yl]-(5-fluoro-pyridin-2-ylmethyl)-amine], the IC50 in experiment [1] and in experiment [2] was below 1 µM each time.

`COc1cncc(CNc2nc(Cl)c(Cc3c[nH]c4ncccc34)s2)c1` [P-0207, [4-Chloro-5-(1H-pyrrolo[2,3-b]pyridin-3-ylmethyl)-thiazol-2-yl]-(5-methoxy-pyridin-3-ylmethyl)-amine] displayed an IC50 in experiment [1] below 1 µM.

For the molecule `Fc1cncc(CNc2nc(Cl)c(Cc3c[nH]c4ncc(Cl)cc34)s2)c1` [P-0231, [4-Chloro-5-(5-chloro-1H-pyrrolo[2,3-b]pyridin-3-ylmethyl)-thiazol-2-yl]-(5-fluoro-pyridin-3-ylmethyl)-amine], the IC50 in experiment [1] was below 1 µM.

Consider `COc1cncc(CNc2nc(Cl)c(Cc3c[nH]c4ncc(Cl)cc34)s2)c1` [P-0241, [4-Chloro-5-(5-chloro-1H-pyrrolo[2,3-b]pyridin-3-ylmethyl)-thiazol-2-yl]-(5-methoxy-pyridin-3-ylmethyl)-amine], for which the IC50 in experiment [1] is below 1 µM.

Molecule `O=C(c1ccc(NCc2ccccc2F)nc1)c1c[nH]c2ncccc12` [P-0403, [6-(2-fluoro-benzylamino)-pyridin-3-yl]-(1H-pyrrolo[2,3-b]pyridin-3-yl)-methanone] displayed an IC50 in experiment [1] below 1 µM.

`O=C(c1ccc(NCc2ccccc2F)nc1)c1c[nH]c2ncc(Cl)cc12` [P-0404, (5-chloro-1H-pyrrolo[2,3-b]pyridin-3-yl)-[6-(2-fluoro-benzylamino)-pyridin-3-yl]-methanone]: the IC50 in experiment [2] was below 1 µM.

In experiment [2], `Fc1ccc(Cl)c(CNc2ncc(Cc3c[nH]c4ncccc34)cn2)c1` [P-0407, (2-Chloro-5-fluoro-benzyl)-[5-(1H-pyrrolo[2,3-b]pyridin-3-ylmethyl)-pyrimidin-2-yl]-amine] yielded an IC50 below 1 µM.

Turning to `Fc1ccc(Cl)c(CNc2ncc(Cc3c[nH]c4ncc(Cl)cc34)cn2)c1` [P-0408, (2-Chloro-5-fluoro-benzyl)-[5-(5-chloro-1H-pyrrolo[2,3-b]pyridin-3-ylmethyl)-pyrimidin-2-yl]-amine], the IC50 in experiment [2] was below 1 µM.

On to `FC(F)(F)COc1ccc(CNc2ccc(Cc3c[nH]c4ncc(Cl)cc34)cn2)cn1` [P-0409, [5-(5-Chloro-1H-pyrrolo[2,3-b]pyridin-3-ylmethyl)-pyridin-2-yl]-[6-(2,2,2-trifluoro-ethoxy)-pyridin-3-ylmethyl]-amine], for which the half-inhibitory concentration (IC50) in experiment [2] is below 1 µM.

Values taken from patent US9487515B2, “Compounds modulating c-fms and/or c-kit activity and uses therefor” (Plexxikon Inc., priority 2006, dated 2016).
